Measured values published in PubChem BioAssay (NCI).
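Cultured in 96-well plates, cells were exposed to test compound for 48 hours across five concentrations. The concentration for 50% growth inhibition is given as GI50. At the TGI there is no net growth.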

Assays:
Test in all cases: NCI tumour cell line growth inhibition, 48 h
SF-539 CNS = tested on: SF-539 CNS
EKVX NSCLC = tested on: EKVX NSCLC
KM12 colon = tested on: KM12 colon
MDA-MB-435 = tested on: MDA-MB-435
OVCAR-4 ovarian = tested on: OVCAR-4 ovarian
HCC-2998 colon = tested on: HCC-2998 colon
ACHN renal = tested on: ACHN renal
HT29 colon = tested on: HT29 colon
U251 CNS = tested on: U251 CNS
MCF7 breast = tested on: MCF7 breast
PC-3 prostate = tested on: PC-3 prostate
LOX IMVI melanoma = tested on: LOX IMVI melanoma
NCI-H226 lung = tested on: NCI-H226 lung
COLO 205 colon = tested on: COLO 205 colon
SK-MEL-5 melanoma = tested on: SK-MEL-5 melanoma
T-47D breast = tested on: T-47D breast
SF-295 CNS = tested on: SF-295 CNS
DU-145 prostate = tested on: DU-145 prostate
M14 melanoma = tested on: M14 melanoma
SF-268 CNS = tested on: SF-268 CNS
MDA-MB-231 breast = tested on: MDA-MB-231 breast
NCI-H522 lung = tested on: NCI-H522 lung
NCI-H23 lung = tested on: NCI-H23 lung
MOLT-4 leukemia = tested on: MOLT-4 leukemia
RXF 393 renal = tested on: RXF 393 renal
HL-60(TB) leukemia = tested on: HL-60(TB) leukemia
OVCAR-5 ovarian = tested on: OVCAR-5 ovarian
MALME-3M melanoma = tested on: MALME-3M melanoma
A498 renal = tested on: A498 renal
UO-31 renal = tested on: UO-31 renal
OVCAR-8 ovarian = tested on: OVCAR-8 ovarian
OVCAR-3 ovarian = tested on: OVCAR-3 ovarian
SK-MEL-2 melanoma = tested on: SK-MEL-2 melanoma
SN12C renal = tested on: SN12C renal
SK-MEL-28 melanoma = tested on: SK-MEL-28 melanoma
786-0 renal = tested on: 786-0 renal
SR leukemia = tested on: SR leukemia
SW-620 colon = tested on: SW-620 colon
NCI/ADR-RES ovarian = tested on: NCI/ADR-RES ovarian
HCT-15 colon = tested on: HCT-15 colon
BT-549 breast = tested on: BT-549 breast
TK-10 renal = tested on: TK-10 renal
HCT-116 colon = tested on: HCT-116 colon
SK-OV-3 ovarian = tested on: SK-OV-3 ovarian
CAKI-1 renal = tested on: CAKI-1 renal
SNB-19 CNS = tested on: SNB-19 CNS
K-562 leukemia = tested on: K-562 leukemia
HOP-62 NSCLC = tested on: HOP-62 NSCLC
RPMI-8226 leukemia = tested on: RPMI-8226 leukemia
UACC-62 melanoma = tested on: UACC-62 melanoma
UACC-257 melanoma = tested on: UACC-257 melanoma
CCRF-CEM leukemia = tested on: CCRF-CEM leukemia
NCI-H460 lung = tested on: NCI-H460 lung
SNB-75 CNS = tested on: SNB-75 CNS
A549 NSCLC = tested on: A549 NSCLC
HS 578T breast = tested on: HS 578T breast
IGROV1 ovarian = tested on: IGROV1 ovarian

SMILES: O=C1c2ccc([N+](=O)[O-])cc2-c2c1c1ccccc1c(=O)n2CCCNCCCNCCCn1c2c(c3ccc([N+](=O)[O-])cc3c1=O)C(=O)c1ccccc1-2
- GI50 (SF-539 CNS): 1.96 µM
- TGI (SF-539 CNS): 7 µM
- GI50 (EKVX NSCLC): 8.76 µM
- TGI (EKVX NSCLC): 32.1 µM
- GI50 (KM12 colon): 1.53 µM
- TGI (KM12 colon): 4.31 µM
- GI50 (MDA-MB-435): 3.88 µM
- TGI (MDA-MB-435): > 46.6 µM
- GI50 (OVCAR-4 ovarian): 1.06 µM
- TGI (OVCAR-4 ovarian): 2.88 µM
- GI50 (HCC-2998 colon): 3.08 µM
- TGI (HCC-2998 colon): 9.77 µM
- GI50 (ACHN renal): 4.26 µM
- TGI (ACHN renal): 15.9 µM
- GI50 (HT29 colon): 0.182 µM
- TGI (HT29 colon): 1.48 µM
- GI50 (U251 CNS): 3.42 µM
- TGI (U251 CNS): 15.3 µM
- GI50 (MCF7 breast): 0.961 µM
- TGI (MCF7 breast): 4.55 µM
- GI50 (PC-3 prostate): 3.31 µM
- TGI (PC-3 prostate): 15.9 µM
- GI50 (LOX IMVI melanoma): 2.7 µM
- TGI (LOX IMVI melanoma): 16 µM
- GI50 (NCI-H226 lung): 1.57 µM
- TGI (NCI-H226 lung): 8.53 µM
- GI50 (COLO 205 colon): 1.33 µM
- TGI (COLO 205 colon): 6.83 µM
- GI50 (SK-MEL-5 melanoma): 3.07 µM
- TGI (SK-MEL-5 melanoma): 20.9 µM
- GI50 (T-47D breast): 2.23 µM
- TGI (T-47D breast): 7.95 µM
- GI50 (SF-295 CNS): 2.23 µM
- TGI (SF-295 CNS): 20.7 µM
- GI50 (DU-145 prostate): 0.667 µM
- TGI (DU-145 prostate): 2.03 µM
- GI50 (M14 melanoma): 13.6 µM
- TGI (M14 melanoma): 33.9 µM
- GI50 (SF-268 CNS): 0.988 µM
- TGI (SF-268 CNS): 12.8 µM
- GI50 (MDA-MB-231 breast): 0.407 µM
- TGI (MDA-MB-231 breast): 2.85 µM
- GI50 (NCI-H522 lung): 7.1 µM
- TGI (NCI-H522 lung): 32.3 µM
- GI50 (NCI-H23 lung): 1.2 µM
- TGI (NCI-H23 lung): 3.4 µM
- GI50 (MOLT-4 leukemia): 0.129 µM
- TGI (MOLT-4 leukemia): 2.11 µM
- GI50 (RXF 393 renal): 5.51 µM
- TGI (RXF 393 renal): 41 µM
- GI50 (HL-60(TB) leukemia): 2.09 µM
- TGI (HL-60(TB) leukemia): 7.48 µM
- GI50 (OVCAR-5 ovarian): 3.05 µM
- TGI (OVCAR-5 ovarian): 11.3 µM
- GI50 (MALME-3M melanoma): 5.51 µM
- TGI (MALME-3M melanoma): 41.7 µM
- GI50 (A498 renal): 2.05 µM
- TGI (A498 renal): 8.88 µM
- GI50 (UO-31 renal): 10.4 µM
- TGI (UO-31 renal): 33.8 µM
- GI50 (OVCAR-8 ovarian): 0.31 µM
- TGI (OVCAR-8 ovarian): 2.32 µM
- GI50 (OVCAR-3 ovarian): 2.2 µM
- TGI (OVCAR-3 ovarian): 6.16 µM
- GI50 (SK-MEL-2 melanoma): 17.3 µM
- TGI (SK-MEL-2 melanoma): 62.3 µM
- GI50 (SN12C renal): 0.355 µM
- TGI (SN12C renal): 2.91 µM
- GI50 (SK-MEL-28 melanoma): 3.83 µM
- TGI (SK-MEL-28 melanoma): 15.9 µM
- GI50 (786-0 renal): 1.2 µM
- TGI (786-0 renal): 7.21 µM
- GI50 (SR leukemia): 0.0306 µM
- TGI (SR leukemia): 2.83 µM
- GI50 (SW-620 colon): 0.81 µM
- TGI (SW-620 colon): 3.07 µM
- GI50 (NCI/ADR-RES ovarian): 7.51 µM
- TGI (NCI/ADR-RES ovarian): 63.5 µM
- GI50 (HCT-15 colon): 3.4 µM
- TGI (HCT-15 colon): 14.3 µM
- GI50 (BT-549 breast): 4.91 µM
- TGI (BT-549 breast): 37.2 µM
- GI50 (TK-10 renal): 5.32 µM
- TGI (TK-10 renal): 33.9 µM
- GI50 (HCT-116 colon): 0.933 µM
- TGI (HCT-116 colon): 2.91 µM
- GI50 (SK-OV-3 ovarian): 4.79 µM
- TGI (SK-OV-3 ovarian): 19.2 µM
- GI50 (CAKI-1 renal): 3.33 µM
- TGI (CAKI-1 renal): 20.8 µM
- GI50 (SNB-19 CNS): 0.985 µM
- TGI (SNB-19 CNS): 6.54 µM
- GI50 (K-562 leukemia): 0.539 µM
- TGI (K-562 leukemia): 1.97 µM
- GI50 (HOP-62 NSCLC): 1.85 µM
- TGI (HOP-62 NSCLC): 12.4 µM
- GI50 (RPMI-8226 leukemia): 0.258 µM
- TGI (RPMI-8226 leukemia): 0.82 µM
- GI50 (UACC-62 melanoma): 1.71 µM
- TGI (UACC-62 melanoma): 4.85 µM
- GI50 (UACC-257 melanoma): 18 µM
- TGI (UACC-257 melanoma): 59.6 µM
- GI50 (CCRF-CEM leukemia): 1.77 µM
- TGI (CCRF-CEM leukemia): 5.62 µM
- GI50 (NCI-H460 lung): 2.34 µM
- TGI (NCI-H460 lung): 14.6 µM
- GI50 (SNB-75 CNS): 0.427 µM
- TGI (SNB-75 CNS): 5.54 µM
- GI50 (A549 NSCLC): 2.69 µM
- TGI (A549 NSCLC): > 40.8 µM
- GI50 (HS 578T breast): 1.43 µM
- TGI (HS 578T breast): 22.7 µM
- GI50 (IGROV1 ovarian): 2.43 µM
- TGI (IGROV1 ovarian): 15.8 µM
